The results in this text go back to US11964973B2 (priority 2019, dated 2024).

Like-named read-outs stand apart in the source and are kept apart here.

The subject of one test is naïve human CD8 T cells. Put plainly: CellTiter-Glo CD8 T cell proliferation assay. It counts as cell-based. As to conditions: Homo sapiens, read-out: CD8 GLO Normalized EC50. The procedure: Assay 4: CellTiter-Glo CD8 T Cell Proliferation Assay
Frozen naïve human CD8 T cells were thawed in RPMI+10% FBS, incubated for 2 h in 37° C., and counted. The 384-well tissue culture plate was coated overnight at 4° C. with 20 μl anti-human CD3 at 0.1 μg/mL in plain RPMI, which was removed off the plate before 20 k/40 μL CD8 T cells with 0.5 μg/ml soluble anti-human CD28 were added to each well. The compounds were echoed to the cell plate immediately after the cells were plated. After 72 h incubation at 37° C. incubator, 10 μL CellTiter-glo reagent (Promega catalog number G7570) was added to each well. The plate was vigorously shaken for 5 mins, incubated at room temperature for another 15 mins and read on Envision for CD8 T cell proliferation. In analysis, 0.1 μg/mL anti-CD3 and 0.5 μg/mL anti-CD28 stimulated CD8 T cell signal was background.
(In general: ATP-based viability assays read luminescence as a measure of living cells.)

The next test has as its target human DGKζ (Homo sapiens (Human), UniProt Q13574). Description: biochemical. It counts as biochemical. As to conditions: liposome (LIPGLO) assay.
For another test, the target named is DGKα (Homo sapiens (Human), UniProt P23743). Description: biochemical. It counts as biochemical. As to conditions: liposome (LIPGLO) assay.
Test [1] has as its system human venous whole blood, CD8 positive population (pERK). Description: DGK human whole blood pERK assay. In kind it is cell-based. A digest of the protocol:
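Read-out is the pERK-positive fraction of CD8+ cells measured by flow cytometry. Donor venous blood (heparin) saw compound for one hour at 37° C before a 15-minute anti-CD3 challenge (1 μg/mL final) with cross-linking anti-mouse IgG.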

The test system of test [2] is Human venous whole blood (IFN-γ). Description: Human whole blood IFN-γ assay. In kind it is cell-based. How it is done:
Assay 10: Human Whole Blood IFN-γ Assay
Human venous whole blood (22.5 μL per well), obtained from healthy donors, was pre-treated with compounds for one hour at 37° C. in a humidified 95% air/5% CO2 incubator. The blood was stimulated with 2.5 μL anti-human CD3 and anti-CD28 mAb at a final concentration of 1 μg/mL each for 24 hours at 37° C. IFN-γ in the supernatants was measured using AlphLISA kit (Cat #AL217).

A further test concerns the target Human DGKα(9-727) (Homo sapiens (Human), UniProt P23743). Description: biochemical. As to conditions: Table A; liposome (LIPGLO) assay; read-out: DGKα.
The mark [3] stands for this setting: read-out: DGK HWB, human whole blood pERK.
The mark [4] stands for this setting: read-out: INFg Whole Blood, human whole blood IFN-γ.
[5] abbreviates: Homo sapiens, read-out: INFg Whole Blood, human whole blood IFN-γ.
Setting [6] is: human whole blood pERK, read-out: DGK HWB.
Where [7] appears, read: Homo sapiens, CD8 positive, human whole blood pERK, read-out: DGK HWB.

Sequence of DGKα (P23743 whole entry, looked up): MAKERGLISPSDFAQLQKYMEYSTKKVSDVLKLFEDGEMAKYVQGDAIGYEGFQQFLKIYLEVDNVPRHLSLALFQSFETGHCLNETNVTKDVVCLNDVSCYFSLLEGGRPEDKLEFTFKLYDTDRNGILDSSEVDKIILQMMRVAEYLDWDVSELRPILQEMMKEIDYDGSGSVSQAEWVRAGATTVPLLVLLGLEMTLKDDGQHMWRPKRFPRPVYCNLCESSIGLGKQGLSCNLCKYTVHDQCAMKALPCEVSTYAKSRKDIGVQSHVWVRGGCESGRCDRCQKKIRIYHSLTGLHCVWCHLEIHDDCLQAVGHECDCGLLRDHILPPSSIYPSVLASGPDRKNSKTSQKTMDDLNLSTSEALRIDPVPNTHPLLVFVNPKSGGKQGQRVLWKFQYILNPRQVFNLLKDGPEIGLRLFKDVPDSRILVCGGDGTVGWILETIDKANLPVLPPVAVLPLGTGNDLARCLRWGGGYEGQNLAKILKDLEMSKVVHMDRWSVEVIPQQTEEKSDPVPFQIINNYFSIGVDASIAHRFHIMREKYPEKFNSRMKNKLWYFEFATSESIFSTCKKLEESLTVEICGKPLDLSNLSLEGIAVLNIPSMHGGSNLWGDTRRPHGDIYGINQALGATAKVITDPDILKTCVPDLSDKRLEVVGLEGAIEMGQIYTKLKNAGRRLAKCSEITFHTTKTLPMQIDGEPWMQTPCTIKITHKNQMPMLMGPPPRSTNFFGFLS
Sequence of Human DGKα(9-727) (P23743 whole entry, looked up): as above
Sequence of human DGKζ (Q13574 whole entry, looked up): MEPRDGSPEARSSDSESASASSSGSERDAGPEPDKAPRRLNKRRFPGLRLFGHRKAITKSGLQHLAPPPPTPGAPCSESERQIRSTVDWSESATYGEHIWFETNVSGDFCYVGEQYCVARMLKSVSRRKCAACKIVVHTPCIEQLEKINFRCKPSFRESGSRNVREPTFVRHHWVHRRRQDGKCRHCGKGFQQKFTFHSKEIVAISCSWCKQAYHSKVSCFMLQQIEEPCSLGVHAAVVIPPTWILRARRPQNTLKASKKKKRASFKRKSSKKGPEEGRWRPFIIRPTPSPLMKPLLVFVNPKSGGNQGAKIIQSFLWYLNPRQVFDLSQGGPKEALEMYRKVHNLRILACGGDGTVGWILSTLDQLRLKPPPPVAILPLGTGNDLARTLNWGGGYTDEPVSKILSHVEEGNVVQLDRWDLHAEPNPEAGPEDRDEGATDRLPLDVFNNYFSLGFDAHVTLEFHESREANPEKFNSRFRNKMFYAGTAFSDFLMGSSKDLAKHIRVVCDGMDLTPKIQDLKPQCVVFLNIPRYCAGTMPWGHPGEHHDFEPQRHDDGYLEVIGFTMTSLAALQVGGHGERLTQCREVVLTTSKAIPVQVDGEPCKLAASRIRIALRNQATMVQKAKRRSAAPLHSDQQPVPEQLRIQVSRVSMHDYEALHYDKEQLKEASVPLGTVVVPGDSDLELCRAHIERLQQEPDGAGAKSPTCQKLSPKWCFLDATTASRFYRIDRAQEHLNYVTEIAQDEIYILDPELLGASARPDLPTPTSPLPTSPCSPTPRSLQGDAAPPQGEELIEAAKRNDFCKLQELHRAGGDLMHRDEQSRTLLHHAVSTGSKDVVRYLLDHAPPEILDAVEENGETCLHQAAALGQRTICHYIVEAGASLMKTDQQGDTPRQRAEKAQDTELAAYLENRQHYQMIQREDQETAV

In the case of `Cc1cccc(OC2CCN(c3c([N+](=O)[O-])c(=O)n(C)c4ccc(F)cc34)CC2)c1` [Example 4, 6-fluoro-1-methyl-3-nitro-4-(4-(m-tolyloxy)piperidin-1-yl)quinolin-2(1H)-one], the EC50 with naïve human CD8 T cells amounted to 440 nM.
`Cc1cccc(OC2CCN(c3c(C#N)c(=O)n(C)c4ccc(Cl)nc34)CC2)c1` [Example 22, 6-chloro-1-methyl-2-oxo-4-(4-(m-tolyloxy)piperidin-1-yl)-1,2-dihydro-1,5-naphthyridine-3-carbonitrile]: the values for the IC50 on human DGKζ (read-out: DGKζ LIPGLO IC50) and on DGKα (read-out: DGKα LIPGLO IC50) were 5700 nM and 150 nM, respectively. Moreover, the EC50 in the test on naïve human CD8 T cells was 620 nM.
Take `CC(C)c1ccc(OC2CCN(c3c([N+](=O)[O-])c(=O)n(C)c4ccc(F)cc34)CC2)cc1` [Example 2, 6-fluoro-4-(4-(4-isopropylphenoxy)piperidin-1-yl)-1-methyl-3-nitroquinolin-2(1H)-one]: in the test on naïve human CD8 T cells, the EC50 was 340 nM.
Turning to `Cn1c(=O)c(C#N)c(N2CCC(Oc3ccc(F)cc3)CC2)c2nc(Cl)ccc21` [Example 20, 6-chloro-4-(4-(4-fluorophenoxy)piperidin-1-yl)-1-methyl-2-oxo-1,2-dihydro-1,5-naphthyridine-3-carbonitrile], the IC50 at human DGKζ (read-out: DGKζ LIPGLO IC50) was found to be 16000 nM; at DGKα (read-out: DGKα LIPGLO IC50), 430 nM. For the same compound, the EC50 in the test on naïve human CD8 T cells was 870 nM.
`Cn1c(=O)c([N+](=O)[O-])c(N2CCC(Oc3cccc(Cl)c3)CC2)c2cc(F)ccc21` [Example 7, 4-(4-(3-chlorophenoxy)piperidin-1-yl)-6-fluoro-1-methyl-3-nitroquinolin-2(1H)-one]: in the test on naïve human CD8 T cells, the EC50 came to 2300 nM.
As to `Cn1c(=O)c(C#N)c(N2CCC(Oc3ccccc3F)CC2)c2nc(Cl)ccc21` [Example 44, 6-chloro-4-(4-(2-fluorophenoxy)piperidin-1-yl)-1-methyl-2-oxo-1,2-dihydro-1,5-naphthyridine-3-carbonitrile], the IC50 is 59000 nM on human DGKζ (read-out: DGKζ LIPGLO IC50) and 1700 nM on DGKα (read-out: DGKα LIPGLO IC50). Besides, the EC50 in the test with naïve human CD8 T cells came to 1500 nM.
Take `CC(C)Oc1ccc(OC2C[C@@H](C)N(c3nc(=O)n(C)c4ccc(C#N)nc34)C[C@H]2C)nc1` (single isomer, unassigned) [Example 245, (±)-Cis-(-4-((5-isopropoxypyridin-2-yl)oxy)-2,5-dimethylpiperidin-1-yl)-1-methyl-2-oxo-1,2-dihydropyrido[3,2-d]pyrimidine-6-carbonitrile]: the figures for the EC50 in test [1] (setting [3]) and in test [2] (setting [4]) were 800 nM and 410 nM, respectively. Moreover, the IC50 at human DGKζ (Table A, read-out: DGKζ) turned out to be 50 nM; at Human DGKα(9-727), 430 nM.
With `CC(C)Oc1ccc(OC2C[C@H](C)N(c3nc(=O)n(C)c4ccc(C#N)nc34)C[C@@H]2C)nc1` (mixture of isomers) [Example 246, (±)-Cis-(-4-((5-isopropoxypyridin-2-yl)oxy)-2,5-dimethylpiperidin-1-yl)-1-methyl-2-oxo-1,2-dihydropyrido[3,2-d]pyrimidine-6-carbonitrile], the figures for the EC50 in test [1] (setting [3]) and in test [2] (setting [5]) were 830 nM and 450 nM, respectively. Also, the IC50 at human DGKζ (Table A, read-out: DGKζ) came out at 870 nM; at Human DGKα(9-727), 69 nM.
For `Cn1c(=O)c([N+](=O)[O-])c(N2CCC(Oc3cccc(C#N)c3)CC2)c2cc(F)ccc21` [Example 6, 3-((1-(6-fluoro-1-methyl-3-nitro-2-oxo-1,2-dihydroquinolin-4-yl)piperidin-4-yl)oxy)benzonitrile], the EC50 in the test on naïve human CD8 T cells amounted to 10000 nM.
Regarding `Cn1c(=O)c([N+](=O)[O-])c(N2CCC(Oc3cccc(F)c3)CC2)c2cc(F)ccc21` [Example 9, 6-fluoro-4-(4-(3-fluorophenoxy)piperidin-1-yl)-1-methyl-3-nitroquinolin-2(1H)-one], the EC50 in the test with naïve human CD8 T cells worked out at 790 nM.
On to `CC1CN(c2c(C#N)c(=O)n(C)c3ccc(C#N)nc23)CCC1N(C)Cc1ccc(F)cc1` (single isomer, unassigned) [Example 323, 8-(4-((4-Fluorobenzyl)(methyl)amino)-3-methylpiperidin-1-yl)-5-methyl-6-oxo-5,6-dihydro-1,5-naphthyridine-2,7-dicarbonitrile], for which, in test [1] (setting [6]), the EC50 turned out to be 12000 nM. Moreover, the IC50 came to 18000 nM on human DGKζ (Table A, read-out: DGKζ) and 3500 nM on Human DGKα(9-727).
For `COc1ccc(C(F)(F)F)cc1OC1CCN(c2c([N+](=O)[O-])c(=O)n(C)c3ccc(F)cc23)CC1` [Example 8, 6-fluoro-4-(4-(2-methoxy-5-(trifluoromethyl)phenoxy)piperidin-1-yl)-1-methyl-3-nitroquinolin-2(1H)-one], the EC50 in the test with naïve human CD8 T cells is 320 nM.
Consider `CC1CN(c2cc(=O)n(C)c3ccc(C#N)nc23)CCC1N(C)C(=O)c1ccc(F)cc1` (single isomer, unassigned) [Example 286, N-(1-(6-Cyano-1-methyl-2-oxo-1,2-dihydro-1,5-naphthyridin-4-yl)-3-methylpiperidin-4-yl)-4-fluoro-N-methylbenzamide], for which the EC50 in test [1] (setting [6]) stood at 8700 nM. Further, the IC50 came to 9200 nM at human DGKζ (Table A, read-out: DGKζ) and 5200 nM on Human DGKα(9-727).
For `Cn1c(=O)c([N+](=O)[O-])c(N2CCC(Oc3cccc4[nH]ncc34)CC2)c2cc(F)ccc21` [Example 5, 4-(4-((1H-indazol-4-yl)oxy)piperidin-1-yl)-6-fluoro-1-methyl-3-nitroquinolin-2(1H)-one], the EC50 with naïve human CD8 T cells was determined as 10000 nM.
As to `COc1ccccc1OC1CCN(c2c(C#N)c(=O)n(C)c3ccc(Cl)nc23)CC1` [Example 35, 6-chloro-4-(4-(2-methoxyphenoxy)piperidin-1-yl)-1-methyl-2-oxo-1,2-dihydro-1,5-naphthyridine-3-carbonitrile], the IC50 amounted to 12000 nM at human DGKζ (read-out: DGKζ LIPGLO IC50) and 290 nM at DGKα (read-out: DGKα LIPGLO IC50). Moreover, in the test on naïve human CD8 T cells, the EC50 worked out at 210 nM.
With `CC(C)Oc1ccc(OC2C[C@@H](C)N(c3nc(=O)n(C)c4ccc(C#N)nc34)C[C@H]2C)nc1` (single isomer, unassigned) [Example 244, (±)-Cis-(-4-((5-isopropoxypyridin-2-yl)oxy)-2,5-dimethylpiperidin-1-yl)-1-methyl-2-oxo-1,2-dihydropyrido[3,2-d]pyrimidine-6-carbonitrile], the EC50 in test [1] (setting [3]) worked out at 3100 nM; in test [2] (setting [5]) it was 780 nM. For the same compound, the IC50 is 920 nM on human DGKζ (Table A, read-out: DGKζ) and 320 nM at Human DGKα(9-727).
On to `CC1CN(c2c(C#N)c(=O)n(C)c3ccc(C#N)nc23)CCC1N(C)Cc1ccc(F)cc1` (single isomer, unassigned) [Example 324, 8-(4-((4-Fluorobenzyl)(methyl)amino)-3-methylpiperidin-1-yl)-5-methyl-6-oxo-5,6-dihydro-1,5-naphthyridine-2,7-dicarbonitrile], for which the EC50 in test [1] (setting [6]) came to 20000 nM. For the same compound, the IC50 at human DGKζ (Table A, read-out: DGKζ) was determined as 130000 nM; at Human DGKα(9-727), 130000 nM.
With `CCO[C@H]1CN(c2cc(=O)n(C)c3ccc(C#N)nc23)CC[C@H]1Oc1cccc(C(F)(F)F)c1` (single isomer, unassigned) [Example 370, cis-8-(3-Ethoxy-4-(3-(trifluoromethyl)phenoxy)piperidin-1-yl)-5-methyl-6-oxo-5,6-dihydro-1,5-naphthyridine-2-carbonitrile], the EC50 in test [1] (setting [7]) came to 6700 nM. Besides, the IC50 at human DGKζ (Table A, read-out: DGKζ) amounted to 5600 nM; at Human DGKα(9-727), 5100 nM.
Regarding `CC[C@@H]1CN(c2cc(=O)n(C)c3ccc(C#N)nc23)CC[C@H]1Oc1cccc(C(C)(C)C)c1` (single isomer, unassigned) [Example 197], the EC50 was 600 nM in test [1] (Homo sapiens, CD8 positive, read-out: DGK HWB, human whole blood pERK) and 570 nM in test [2] (setting [4]). Further, the IC50 on human DGKζ (Table A, read-out: DGKζ) amounted to 250 nM; on DGKα (Table A, read-out: DGKα), 11 nM; on Human DGKα(9-727), 5.4 nM.
As for `CO[C@@H]1CN(c2cc(=O)n(C)c3ccc(C#N)nc23)CC[C@H]1Oc1cccc(C(F)(F)F)c1` (single isomer, unassigned) [Example 261, (±)-trans-8-(3-methoxy-4-(3-(trifluoromethyl)phenoxy)piperidin-1-yl)-5-methyl-6-oxo-5,6-dihydro-1,5-naphthyridine-2-carbonitrile], the EC50 in test [1] (setting [7]) amounted to 1500 nM. The IC50 at human DGKζ (Table A, read-out: DGKζ) is 1400 nM; on Human DGKα(9-727), 200 nM.
Take `CCC(C)(C)c1ccc(O[C@@H]2CCN(c3c(C#N)c(=O)n(C)c4ccc(C#N)nc34)C[C@H]2C)cc1` (single isomer, unassigned) [Example 231, 5-methyl-8-(trans-3-methyl-4-(4-(tert-pentyl)phenoxy)piperidin-1-yl)-6-oxo-5,6-dihydro-1,5-naphthyridine-2,7-dicarbonitrile (rel)]: the EC50 is 400 nM in test [1] (setting [7]) and 510 nM in test [2] (Homo sapiens, human whole blood IFN-γ, read-out: INFg Whole Blood). Further, the IC50 at human DGKζ (Table A, read-out: DGKζ) is 83000 nM; on DGKα (Table A, read-out: DGKα), 490 nM; on Human DGKα(9-727), 1600 nM.
